Series [1] has as its system hyaluronan (HA antigens) in pig xenograft tissue. Kind of series: Immunohistochemistry of IgM and IgG deposits in xenografts at AHXR with hyaluronidase pre-treatment. On the set-up: species or system pig xenograft in baboon. Here is the method: In all the transplants an open xenograft biopsy was obtained 30 minutes after reperfusion, as well as at autopsy after AHXR. Tissue samples were fixed in 10% buffered formalin for at least 24 hours, dehydrated, and embedded in paraffin. Sections of 4 μm thickness were stained with hematoxylin and eosin Immunohistochemical examinations for IgG and IgM were performed in paraffin-embedded material. After inhibition of endogenous alkaline phosphatase with levamisol for 10 minutes, samples were incubated with goat anti-human IgG and IgM alkaline phosphatase conjugated (Sigma-Aldrich) for 30 minutes at 1:50 dilution. Tissue samples where then incubated with the EnVision™ G|2, Rabbit/Mouse (LINK) (Dako) following product recommendations. This reagent is a dextran polymer, which also carries antibodies to rabbit and mouse immunoglobulins. Finally, an alkaline phosphatase-labelled amplification polymer is added. The reaction is visualized by Permanent Red Chromogen also included in the kit. To investigate the potential role of hyaluronan as antigen some tissue sections were pre-treated with 50 u/mL of Streptomyces hyaluronidase (Sigma-Aldrich) for two hours at 37° C., which unlike other hyaluronidases is specific for hyaluronan.
To investigate the potential impact of HA antigens in AHXR, the presence of IgM and IgG deposits in tissue samples was investigated with and without previous incubation with Streptomyces hyaluronidase, which is specific for HA.

Series [2] has as its system human endothelial cells (HMEC). Kind of series: Flow cytometry of non-human primate antibody binding to HMEC pre-treated with hyaluronidase. Format: cell-based. The text has this:
The authors have previously shown that immunization of non-human primates with pig blood is associated with the generation of xenoantibodies cross-reactive to human endothelial cells. To investigate whether HA antigens were involved in this reactivity, human endothelial cells (HMEC) were pre-treated with 20 Um′ of hyaluronidase from Streptomyces, which is specific for HA, for one hour. This hyaluronidase cleaves HA in fragments of 4 and 6 saccharides (tetra- and hexasaccharides). […] To show the effect of hyaluronidase pre-treatment in HA on HMEC cells, a hyaluronan-binding-protein (HABP), which binds to large molecular weight HA, was used as control (FIG. 9C).
In general terms: Flow cytometry measures light scatter and fluorescence of single cells or particles in a stream.

Series [3] relates to anti-carbohydrate antibodies of baboon serums. Kind of series: Glycan array screening of baboon serums (406 glycans). Type of series: binding, baboons (Papio anubis). The settings on record: for change of anti-carbohydrate antibodies after PRBC exposure: animal E19; for average±S.D. level of antibodies: before transplant/PRBC, animals without anti-Gal removal (A15, A14) or sampled before GAS914 (C63). The text has this:
Heterotopic pig heart and kidney were placed in the abdominal cavity of baboons as previously described (Schmoeckel M et al. 1998 Transplantation 65:1570-1577; Cozzi E et al. 1997 Transplantation. 64:1383-1392). Blood samples for anti-carbohydrate antibody analysis were obtained from each animal before transplantation and at acute humoral xenotransplant rejection (AHXR).
Three animals (D29, E19 and E7) were exposed to weekly injections of 5 cubic centimeters (cc) of PRBC three times and blood samples for anti-carbohydrate antibodies were analysed one week after last injection. Another animal received 7 daily injections of 5 cc of PRBC (C63), until an augment of the level of anti-pig hemolytic antibodies (APHA) was observed, and blood samples were analysed at days 2, 20 and 30 relative to the first PRBC injection.
The carbohydrate-binding specificity of baboon serums obtained before and after pig organ xenotransplantation or PRBC exposure was investigated on glycan array v4.1 comprised of 406 glycans (Consortium for Functional Glycomics, Protein-Glycan Interaction Core-H) (http://www.functionalglycomics.org). Two different studies were performed: Consortium for Functional Glycomics projects #1313 and #1577. Pre and post-immunization samples from each animal were analysed in the same glycoarray study with exception of C63 day 20, which was performed in study #1577 whilst the other samples from this animal were analysed in study #1313. In order to assess the potential effect of a different glycoarray study, a linear mixed model with repeated measures was fitted for each carbohydrate, with its log expression as dependent variable and type of sample (pre or post-immunization) and the study (#1313 or #1577) as independent variables.

Series [4] deals with anti-HA antibodies in human serum. Kind of series: Specific ELISA for HA oligosaccharides, human serum. Type of series: binding. The text has this:
(§1) The enzyme-linked immunosorbent assay (ELISA) plates were coated with HA oligosaccharides (disaccharide, tetrasaccharide and decasaccharide) conjugated with polyacrylamide, obtained from Shemyakin-Ovchinnikov Institute of Biorganic Chemistry, Russian Academy of Science (Moscow, Russia). The disaccharide form was synthesized in this institution, whilst the tetrasaccharide and decasaccharide molecules were obtained from Sigma, Spain, and bound to polyacrylamide in this center. The protocol for determination of anti-HA antibodies was based in previously described ELISAs to determine other anti-carbohydrate antibodies with minimal modifications (Mañez R et al. 2001 Xenotransplantation 8: 15-23; Obukhova P et al. 2007 Xenotransplantation 14: 627-635).
Humans also have preformed antibodies against HA disaccharide (von Gunten S et al. 2009 J Allergy Clin Immunol 123: 1268-1276; Huflejt M E et al. 2009 Mol Immunol 46: 3037-3049). Thus, we used human serums randomly selected to investigate by specific ELISAS, the presence of preformed antibodies against HA disaccharide, tetrasaccharide and decasacchride. Also, antibodies against HA oligosaccharides were investigated in rats immunized either with PRBC and hamster blood following two protocols to generate mainly IgM or IgG antibodies.
The inventors analyzed the level of anti-HA disaccharide antibodies by specific ELISA in patients with SLE and anti-DNA antibodies (Group A; n=17), SLE without anti-DNA antibodies (Group B; n=10) and controls from blood bank (Group C; n=13). The values for IgM anti-HA disaccharide antibodies were (mean±S.E.) 0.58±0.07 in Group A, 0.71±0.13 in Group B, and 0.74±0.11 in Group C, with p=0.1 in ANOVA comparing Group A with Groups B or C. For IgG, the values were 0.37±0.08 in Group A, 0.27±0.05 in Group B, 0.27±0.03 in Group C, with a p=0.3 in ANOVA comparing Group A with Groups B or C.

In series [5] the test system is anti-HA antibodies in rat serum. Kind of series: Specific ELISA for HA oligosaccharides, rats immunized with PRBC or hamster blood. Format: binding. The settings on record: for level of preformed antibodies in rats compared to humans: rats before exposure; for level of preformed antibodies in rats compared to humans / production of IgM antibodies: FIG. 6; for production of IgM antibodies / production of IgG antibodies: rats; for production of IgM antibodies: three injections of PRBC or hamster blood every other day; for production of IgG antibodies: three injections of PRBC or hamster blood every other week, FIGS. 7 and 8. Here is the method:
Rats were immunized either with PRBC and hamster blood following two protocols to produce mainly IgM or IgG anti-carbohydrate antibodies. Three injections of 1 ml every other day (days 0, 2 and 4) and drawn of blood sample on day 5 was used to investigate IgM antibodies, and three injections every two weeks times 3, with blood obtained 12 days after last injection was used to investigate IgG antibodies.
as §1
For orientation: ELISA stands for enzyme-linked immunosorbent assay.

For series [6] the following is noted: baboon C63, 200 mg/kg CyP over 4 days from day 20, day relative to first PRBC injection.
Text: The dose of CyP was chosen because it largely eliminates the mature immune system, leading to a major reduction in antibody and autoantibody levels, while leaving hematopoietic precursors intact.
Setting [7] is: hyaluronidase pre-treatment 20 Um′, one hour, serum of primates immunized with pig blood.
Setting [8] is: randomly selected human serums, FIG. 5.
The mark [9] stands for this setting: animal D17, kidney xenotransplantation.
[10] abbreviates: Group A: SLE and anti-DNA antibodies, n=17.
Setting [11] is: Group B: SLE without anti-DNA antibodies, n=10.
Where [12] appears, read: Group C: controls from blood bank, n=13.

Values joined by “and” are separate entries in the source; they are usually repeats but may differ in a detail not shown here. Equal entries are not always repeated.

Regarding Hyaluronidase, the “IgG antibody deposits in xenograft at AHXR, semiquantitative score” value in series [1] (animal A14, AHXR III) is on record as “complete disappearance”; in series [1] (animal A15, AHXR III) it was “complete disappearance”; in series [1] (animal D10, AHXR I), “complete disappearance”; in series [1] (animal D12, AHXR III), “remarkable reduction”; in series [1] (animal D17, AHXR III), “remarkable reduction”. The “IgM antibody deposits in xenograft at AHXR, semiquantitative score” value in series [1] (animal A14, AHXR III) is listed as “notably reduced”; in series [1] (animal A15, AHXR III), “did not show any change”; in series [1] (animal D10, AHXR I), “disappeared”; in series [1] (animal D12, AHXR III) it was “notably reduced”; in series [1] (animal D17, AHXR III), “did not show any change”. Besides, the “non-human primate IgG antibody binding to HMEC” value in series [2] (setting [7]) was “augment”. In series [2] (setting [7]), the “non-human primate IgM antibody binding to HMEC” value was “not observed”. For the same compound, the “HA expression on HMEC detected with hyaluronan-binding-protein (HABP)” value in series [2] (hyaluronidase pre-treatment, compared to the baseline) is “reduction of HA expression”.
For `CC(=O)N[C@H]1[C@H]([C@H](O)[C@H](O)CO)O[C@](OCCCN)(C(=O)O)C[C@@H]1O` [Glycan 14, Neu5Acβ-Sp8, reference compound], the “change of anti-carbohydrate antibodies after PRBC exposure” value in series [3] was “barely changed”.
In the case of `CC(=O)N[C@H]1[C@H](O[C@H]2[C@H](O)[C@@H](O)[C@H](O[C@H]3[C@H](O)[C@@H](CO)OC(O)[C@@H]3NC(C)=O)O[C@@H]2C(=O)O)O[C@H](CO)[C@@H](O)[C@@H]1O[C@@H]1O[C@H](C(=O)O)[C@@H](O)[C@H](O)[C@H]1O` (stereo partly drawn) [HA tetrasaccharide], the “preformed IgM antibodies in human serum” value in series [4] (setting [8]) is reported as “preformed IgM antibodies”. In series [5], the “level of preformed antibodies in rats compared to humans” value is reported as “lower level”, the “production of IgM antibodies” value is listed as “significant production of IgM antibodies” and the “production of IgG antibodies” value is recorded as “significant production”.
Regarding GlcAβ1-3GlcNAcβ-Sp8 [Glycan 300], in series [3] (PRBC exposure, 4 baboons), the “cases with antibodies within the top 20 increases after PRBC exposure” value is on record as “all the cases”. Moreover, the “change of anti-carbohydrate antibody reactivity at AHXR vs before transplantation” value in series [3] (animal A14, severe rejection) is “More significant raises”; in series [3] (animal A15, no treatment, survival 4 days) it was “decreased reactivity”; in series [3] (animal D10, mild rejection), “moderated augment”; in series [3] (animal D12, severe rejection), “More significant raises”; in series [3] (setting [9]), “moderated augment”. The “augment of antibodies after PRBC exposure” value in series [3] (animal C63, day 20, two weeks after end of PRBC injections) is given as “evidenced”; in series [3] (animal C63, day two, during PRBC exposure), “not present”. Moreover, the “level of antibodies after PRBC exposure” value in series [3] (animal C63, day 30 after CyP treatment) was “higher level of anti-carbohydrate antibodies”. For the same compound, in series [3], the “change of anti-carbohydrate antibodies after PRBC exposure” value is “higher level and increase”. Also, the entries for the “rank of average level of antibodies” value in series [3] (baboons before exposure to PRBC) and in series [3] (baboons before pig organ xenotransplantation) were “highest reactivity” and “second highest reactivity”, respectively. For the same compound, in series [3], the “average±S.D. level of antibodies” value is 18332±14201 net fluorescence units (NFU). The “IgG anti-HA disaccharide antibodies (mean±S.E.)” value in series [4] (setting [10]) turned out to be 0.37±0.08; in series [4] (setting [11]), 0.27±0.05; in series [4] (setting [12]) it was 0.27±0.03. Further, the “IgM anti-HA disaccharide antibodies (mean±S.E.)” value in series [4] (setting [10]) was 0.58±0.07; in series [4] (setting [11]), 0.71±0.13; in series [4] (setting [12]) it was 0.74±0.11. Also, the “preformed IgG antibodies in human serum” value in series [4] (setting [8]) is “preformed IgG antibodies are only against HA disaccharide”. Besides, in series [4] (setting [8]), the “preformed IgM antibodies in human serum” value was “preformed IgM antibodies”. Also, in series [5], the “level of preformed antibodies in rats compared to humans” value is reported as “lower level”. Besides, the “production of IgM antibodies” value in series [5] is “significant production of IgM antibodies”. Besides, the “production of IgG antibodies” value in series [5] was “significant production”.
In the case of `O=P1(N(CCCl)CCCl)NCCCO1` (stereo not drawn) [CyP, cyclophosphamide], in series [6], the “day of death because of side effects from CyP treatment” value was 31 days and 30 days.
As for `C[C@@H]1O[C@@H](OCCCN)[C@H](O)[C@H](O)[C@H]1O` [Glycan 11, Rha-Sp8, reference compound], the “change of anti-carbohydrate antibody reactivity at AHXR vs before transplantation” value in series [3] (setting [9]) was “augmented”.
In the case of `CC(=O)N[C@H]1C(O)O[C@H](CO)[C@@H](O[C@@H]2O[C@H](CO)[C@H](O)[C@H](O[C@H]3O[C@H](CO)[C@H](O)[C@H](O)[C@H]3O)[C@H]2O)[C@@H]1O` (stereo partly drawn) [Gal, Galα1-3Galβ1-4GlcNAc, reference compound], the “average±S.D. level of antibodies” value in series [3] is on record as 3865±2892 net fluorescence units (NFU).

For the origin of these results see patent US9719987B2, “Immunoadsorbent compositions comprising hyaluronic acid oligosaccharides” (FUNDACIO INSTITUT D'INVESTIGACIO BIOMEDICA DE BELLVITGE …, priority 2012, dated 2017).
